Laboratory results reported in patent publication US20250250227A1, “AMINO LIPID COMPOUND, PREPARATION METHOD THEREFOR, COMPOSITION THEREOF AND USE THEREOF” (SHENZHEN SHENXIN BIOTECHNOLOGY CO., LTD., priority 2022, published 2025).

How the values were obtained:
Female BALB/c mice [1] = experiment: Performance evaluation of in vivo delivery of Fluc mRNA lipid nanoparticle (IVIS, body and organs); conditions: Fluc mRNA LNP
Outline: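 Female BALB/c mice, 6-8 weeks, received 75 μL Fluc mRNA-LNP by tail-vein injection, 3 mice per formulation. At 6 h, 200 μL D-luciferin was injected, mice were anesthetized with isoflurane, and IVIS bioluminescence was imaged in body and organs.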

[2] = Preparation and characterisation of mRNA-encapsulating lipid nanoparticle (encapsulation efficiency, particle size); format: physicochemical; conditions: LNP encapsulating Fluc mRNA; Lipid:DSPC:CHO-HP:M-DMG-2000 48:10:40.5:1.5
Outline: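 Fluc mRNA in sodium acetate buffer mixed with ethanolic amino lipid:DSPC:CHO-HP:M-DMG-2000 (48:10:40.5:1.5 molar) by microfluidics, mRNA:lipid mass ratio 1:10, then dialysed 2 h against Tris-8% sucrose and 0.22 μm filtered. Final mRNA 0.2 g/L; particle size and encapsulation efficiency measured.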

Female BALB/c mice [3] = experiment: IFN-γ Elispot cellular immunity test, spleen lymphocytes of mice immunized with IN002.5.1 mRNA LNP; format: in vivo; conditions: 50 μL IM, spleen on 7th day after immunization, FIG. 2-4
Method: An IN002.5.1 mRNA-encapsulating lipid nanoparticle formulation was prepared according to the method as described in Experimental Example 1, with replacing the luciferase mRNA (Fluc mRNA) with IN002.5.1 mRNA, with a concentration of IN002.5.1 mRNA of 0.2 g/L, a mass ratio of IN002.5.1 mRNA to Lipid of 1:10, a particle size of 80-130 nm, and an encapsulation efficiency of 90% or higher.
The sequence of IN002.5.1 mRNA is one obtained by replacing all uracil (u) in SEQ ID NO. 1 with N1-methylpseudouridine. Of note is that the t (thymine) in the RNA sequence, SEQ ID NO. 1, in the Sequence Listing is actually u (uracil), according to the WIPO Standard ST. 26 for nucleotide or amino acid sequence listing.
(§1) Animal preparation: Female BALB/c mice of 6-8 weeks old were selected and raised in an SPF grade breeding room. Animal testing was conducted in strict accordance with the guidelines of national health institutions and animal ethics requirements.
Immunization of mice: Prior to injection of the test LNP formulations, the LNP formulations were gently and repeatedly inverted to thoroughly mix the formulation samples. A corresponding amount of the formulation samples were aspirated with a 1 ml insulin syringe, and the LNP formulations were injected by intramuscular injection (IM) […], with 8 mice per formulation. Each mouse was injected with 50 μL of the IN002.5.1 mRNA encapsulating lipid nanoparticle formulation.
Spleen acquisition: On the 7th day after immunization, 3 to 4 mice from each LNP immunization group were selected and euthanized, and their spleens were acquired in a super clean bench.
Isolation of lymphocytes: The spleens of mice were taken out in a super clean bench. 7 mL of mouse lymphocyte separation solution was added to a 6-well cell culture plate. Mouse spleen cells were ground with a syringe piston, and the suspension of the spleen cells was filtered through a cell screen and immediately transferred to a 15 mL centrifuge tube. […] RPMI 1640 medium was slowly added with keeping the liquid interface distinct. After centrifugation at 800 g with a horizontal rotor at room temperature for 30 minutes, a clear stratification can be visible. The lymphocyte layer was aspirated, then added with 10 mL RPMI 1640 medium, and inverted for washing. The cells were collected by centrifugation at 250 g for 10 min at room temperature, and the red blood cells were lysed. After completing lysis of red blood cells, the supernatant was poured, and the cells were resuspended in culture medium and counted.
Addition of stimulant and culture of lymphocyte: RPMI-1640 medium containing 10% fetal bovine serum was used to activate the pre-coated plate. After standing at room temperature for at least 30 min, the medium was removed, and a cell suspension at adjusted concentration was added ([…]). The medium used to resuspend the cells was used as a background negative control. 10 μL positive stimulant working solution (PMA+Ionomycin (dissolved in DPBS) was added to a positive control well; […] medium used to resuspend the cells was added to a negative control well; 10 µL/well of a peptide library diluted with RPMI 1640 was added to experimental wells. After all samples and the stimulant were added, the plate was covered, incubated in an incubator with 5% CO2 at 37° C. for 16-24 h.
Elispot detection after culture: The cells and the culture medium in the wells were dumped, and the wells were lysed with 200 μL/well of ice-cold deionized water at 4° C. for 10 min. The liquid in the wells were shaken out, and the wells were washed five times with PBS buffer. The wells were incubated with 100 μL/well of 1 μg/ml detection antibody for 2 h at room temperature; and after washing the plate 5 times with PBS, the wells were incubated with 100 μL/well of 1000-fold diluted enzyme labeled avidin (Streptavidin-HRP) for 1 h at room temperature. […]

Female BALB/c mice [4] = experiment: Performance evaluation of delivery to lymph nodes of Fluc mRNA lipid nanoparticle (IVIS); format: in vivo; conditions: Fluc mRNA LNP
Method: as §1
In vivo Delivery: prior to injection of the test LNP formulations, the LNP formulations were gently and repeatedly inverted to thoroughly mix the formulation samples. A corresponding amount of the formulation samples were aspirated with a 1 ml insulin syringe, and the LNP formulations were injected by tail vein injection (IV), with 3 mice per formulation. Each mouse was injected with 75 μL the luciferase mRNA (Fluc mRNA)-encapsulating lipid nanoparticle formulation prepared in Experimental Example 1.
6 hours after injection of LNP formulations, mice were injected with 200 μL D-Luciferin luciferase developing substrate (Catalog No. 122799; Manufacturer: Perkin Elmer). After the substrate was injected, the mice were anesthetized with isoflurane inhalation, and the injection time of luciferase developing substrate was recorded.
The intensity of fluorescence expression induced by the lipid nanoparticle encapsulating luciferase mRNA (Fluc mRNA) with a representative amino lipid compound is shown in Table 6, with SM-102 as a control.

## CCCCCCC(CCCCCC)OC(=O)CCCCCCCCC(CCCCCCCCC(=O)OC(CCCCCC)CCCCCC)OC(=O)N(CCCN(C)C)CC(=O)OCC [Compound 268]
Female BALB/c mice [1]; 75 μL IV, 6 hours after injection, IVIS, liver
  Liver (fluorescence expression intensity): 2.11E+07
Female BALB/c mice [1]; 75 μL IV, 6 hours after injection, IVIS, spleen
  Spleen (fluorescence expression intensity): 8.01E+06
Female BALB/c mice [1]; 75 μL tail vein injection (IV), 6 hours after injection, IVIS
  Total flux (fluorescence expression intensity): 1.23E+08
Female BALB/c mice [1]; IV, 6 hours after injection
  (Spleen/Total Flux) * 100%: 6.51%
Female BALB/c mice [1]; IV, relative to amino lipid compound 118
  Multiple of spleen delivery/total delivery to amino lipid compound 118: 19.15
[2]
  Encapsulation efficiency: 92.22%
Female BALB/c mice [3]
  Cellular immunity effect (IFN-γ Elispot) compared to ALC0315: better cellular immunity effect
Female BALB/c mice [4]; 75 μL IV, 6 hours after injection, IVIS, lymph nodes
  Expression intensity (lymph nodes): 1.78E+06
Female BALB/c mice [4]; IV, statement on Table 6
  Delivery effect on lymph nodes compared to SM102: better delivery effect on lymph nodes
